Test results published in PubChem BioAssay (NCI).
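Assay format: 96-well plates, 48-hour exposure. At the GI50, growth is halved. TGI denotes the concentration required for complete inhibition of growth.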

Tests used:
Experiment in all cases: DTP human tumour cell line panel, 48 h
[1] = system: UACC-257 melanoma
[2] = system: 786-0 renal
[3] = system: HCC-2998 colon
[4] = system: HCT-15 colon
[5] = system: MDA-N
[6] = system: HOP-62 NSCLC
[7] = system: HCT-116 colon
[8] = system: MDA-MB-435
[9] = system: SR leukemia
[10] = system: MDA-MB-231 breast

Row | Structure (SMILES) | TGI [1] | TGI [2] | TGI [3] | TGI [4] | TGI [5] | TGI [6] | TGI [7] | TGI [8] | TGI [9] | TGI [10] | GI50 [3]
1 | COCOc1ccc(C(=O)C(C)c2ccc(OCOC)cc2OCOC)c(O)c1 (configuration not stated) | > 100 µM | > 100 µM | > 100 µM | > 100 µM | > 100 µM | > 100 µM | > 100 µM | > 100 µM | > 100 µM | – | –
2 | CCOC(=O)CCCn1nnc(C(=O)OCC)c1C(=O)OCC | > 100 µM | > 100 µM | > 100 µM | > 100 µM | > 100 µM | > 100 µM | > 100 µM | > 100 µM | > 100 µM | > 100 µM | –
3 | C=CCC1(O)c2ccccc2C(=O)c2c(O)ccc(O)c21 (configuration not stated) | 19 µM | 31.8 µM | 15 µM | > 75.7 µM | 5.15 µM | > 86.8 µM | 27.3 µM | 6.43 µM | > 69.8 µM | 26 µM | –
4 | C/C=C/[C@@]1(OC(=O)c2ccccc2)C[C@@H]2CCCC[C@@H]21 | 34.1 µM | 31.8 µM | 44.3 µM | 36.9 µM | 33.4 µM | 29 µM | 29.4 µM | – | 37.9 µM | 36.3 µM | –
5 | CC1(C)O[C@H]2Cn3c(c(C#N)c4ccccc43)[C@H]2O1 | – | > 100 µM | > 100 µM | > 100 µM | > 100 µM | > 100 µM | > 100 µM | > 100 µM | > 100 µM | > 100 µM | –
6 | CN(C)c1nc2sc3c(c2c(=O)o1)CCCC3 | > 100 µM | > 100 µM | > 100 µM | > 100 µM | > 100 µM | > 100 µM | > 100 µM | > 100 µM | > 100 µM | > 100 µM | –
7 | O=C(CP(c1ccccc1)c1ccccc1)c1cccc(C(=O)CP(c2ccccc2)c2ccccc2)c1 | > 100 µM | > 100 µM | > 100 µM | > 100 µM | > 100 µM | > 100 µM | > 100 µM | > 100 µM | 61.5 µM | > 100 µM | –
8 | CCOC(=O)c1cccc(NC(=O)CCl)c1 | 14.1 µM | 4.02 µM | 7.93 µM | 12.4 µM | 14.7 µM | 6.15 µM | 8.29 µM | 7.41 µM | 7.46 µM | 14.5 µM | –
9 | O=C1c2ccccc2C2CNC1(O)c1ccccc12 (configuration not stated) | > 100 µM | > 100 µM | > 100 µM | > 100 µM | > 100 µM | > 100 µM | > 100 µM | > 100 µM | > 100 µM | > 100 µM | –
10 | COc1c2cc([N+](=O)[O-])cc1CNC(=O)CN1CCOCCOCCN(CCOCCOCC1)CC(=O)NC2 | > 100 µM | > 100 µM | > 100 µM | > 100 µM | > 100 µM | > 100 µM | > 100 µM | > 100 µM | – | > 100 µM | –
11 | CC1=NN(C(=O)CSc2nnc(SCC(=O)N3N=C(C)CC3(O)c3ccccc3)s2)C(O)(c2ccccc2)C1 (configuration not stated) | > 100 µM | > 100 µM | > 100 µM | > 100 µM | > 100 µM | > 100 µM | > 100 µM | > 100 µM | > 100 µM | > 100 µM | –
12 | Cc1ccc(C)n1-c1ccccc1C1SCCCS1 | > 100 µM | > 100 µM | > 100 µM | > 100 µM | > 100 µM | > 100 µM | > 100 µM | > 100 µM | – | > 100 µM | –
13 | O=C1C2CCCCC2C(=O)N1n1c(Cc2ccc(Cl)cc2)n[nH]c1=O (configuration not stated) | > 100 µM | > 100 µM | > 100 µM | > 100 µM | > 100 µM | > 100 µM | > 100 µM | > 100 µM | > 100 µM | > 100 µM | –
14 | COc1cc(/C=C/C(=O)OCC23CC[C@@]4(C(=O)O)CCC(C)[C@H](C)C4C2=CCC2[C@@]4(C)CC[C@H](O)C(C)(C)C4CC[C@]23C)ccc1O (some centres not stated) | 39.4 µM | 31.7 µM | > 100 µM | 56.3 µM | 60.7 µM | 28.6 µM | 46.4 µM | 57 µM | 61.3 µM | > 100 µM | –
15 | CO/C(=N\N=C\c1cc(OC)ccc1OC)c1ccncc1 | – | > 10 µM | > 10 µM | > 10 µM | > 10 µM | > 10 µM | > 10 µM | – | > 10 µM | – | –
16 | CCCC(=O)O | – | > 18700 µM | > 18700 µM | > 18700 µM | > 18700 µM | > 18700 µM | > 18700 µM | > 18700 µM | 5340 µM | 18000 µM | 10800 µM
